Data on nine molecules can be found in ChEMBL document CHEMBL3351858, “Opioids and efflux transporters. Part 4: influence of N-substitution on P-glycoprotein substrate activity of noroxymorphone analogues” (Bioorg Med Chem Lett, 2014).

Active and inactive are the calls of the source. The rule behind the calls is not given here.

The species entered for the experiment is Homo sapiens. Put plainly: Activity at human P-glycoprotein assessed as ATPase activity using firefly luciferase at 200 uM by Pgp-Glo assay in presence of MgATP.
With `CC(C)=CCN1CC[C@]23c4c5ccc(O)c4O[C@H]2C(=O)CC[C@@]3(O)[C@H]1C5`, the outcome was inactive.

As for `C/C=C/CN1CC[C@]23c4c5ccc(O)c4O[C@H]2C(=O)CC[C@@]3(O)[C@H]1C5`, the result was Active.

For the molecule `CN1CC[C@]23c4c5ccc(O)c4O[C@H]2C(=O)CC[C@@]3(O)[C@H]1C5`, the outcome was inactive.

For `C=CCN1CC[C@]23c4c5ccc(O)c4O[C@H]2C(=O)CC[C@@]3(O)[C@H]1C5`, the outcome was inactive.

For `O=C1CC[C@@]2(O)[C@H]3Cc4ccc(O)c5c4[C@@]2(CCN3CC2CC2)[C@H]1O5`, the outcome was inactive.

With `O=C1CC[C@@]2(O)[C@H]3Cc4ccc(O)c5c4[C@@]2(CCN3CCCc2ccccc2)[C@H]1O5`, the outcome was Active.

With `O=C1CC[C@@]2(O)[C@H]3Cc4ccc(O)c5c4[C@@]2(CCN3Cc2ccccc2)[C@H]1O5`, the outcome was Active.

With `C=C(C)CN1CC[C@]23c4c5ccc(O)c4O[C@H]2C(=O)CC[C@@]3(O)[C@H]1C5`, the result was Active.

Consider `O=C1CC[C@@]2(O)[C@H]3Cc4ccc(O)c5c4[C@@]2(CCN3CCc2ccccc2)[C@H]1O5`, for which the result was Active.
